The text below walks through data of patent US11370773B1, “Inhibiting human integrin (alpha-4) (beta-7)” (Morphic Therapeutic, Inc., priority 2019, dated 2022).

This test addresses T1, α4β7 (Homo sapiens, UniProt P13612+P26010).
T1 construct: α4β7 expressing cells (RPMI-8866); endogenous in cells; host or cells: RPMI 8866
T1 sequence (P13612 34-1032): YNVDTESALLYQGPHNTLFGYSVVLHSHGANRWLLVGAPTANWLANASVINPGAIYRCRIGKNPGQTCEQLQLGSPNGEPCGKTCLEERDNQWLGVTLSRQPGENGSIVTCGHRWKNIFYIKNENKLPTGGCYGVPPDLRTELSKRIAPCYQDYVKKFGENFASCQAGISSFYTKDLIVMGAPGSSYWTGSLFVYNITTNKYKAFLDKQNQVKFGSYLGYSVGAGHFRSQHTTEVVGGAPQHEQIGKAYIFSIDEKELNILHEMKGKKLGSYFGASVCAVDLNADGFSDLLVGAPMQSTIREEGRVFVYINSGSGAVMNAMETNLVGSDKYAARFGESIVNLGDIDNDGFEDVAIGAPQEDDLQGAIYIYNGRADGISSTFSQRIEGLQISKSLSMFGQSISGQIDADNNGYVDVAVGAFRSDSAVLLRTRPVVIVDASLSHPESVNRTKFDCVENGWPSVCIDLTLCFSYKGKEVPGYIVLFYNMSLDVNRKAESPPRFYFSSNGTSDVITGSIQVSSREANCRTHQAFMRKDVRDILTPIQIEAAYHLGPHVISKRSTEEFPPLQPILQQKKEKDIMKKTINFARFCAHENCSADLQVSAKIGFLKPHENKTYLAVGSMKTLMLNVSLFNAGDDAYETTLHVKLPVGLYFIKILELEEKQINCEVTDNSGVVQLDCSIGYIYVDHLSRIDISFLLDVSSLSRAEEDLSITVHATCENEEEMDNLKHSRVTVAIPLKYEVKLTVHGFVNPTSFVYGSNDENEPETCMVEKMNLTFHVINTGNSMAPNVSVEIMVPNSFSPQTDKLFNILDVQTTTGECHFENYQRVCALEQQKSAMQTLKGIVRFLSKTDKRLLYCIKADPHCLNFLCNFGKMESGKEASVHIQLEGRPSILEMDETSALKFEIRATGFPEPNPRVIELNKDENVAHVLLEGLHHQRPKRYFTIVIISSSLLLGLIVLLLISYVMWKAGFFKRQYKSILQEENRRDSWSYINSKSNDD
T1 sequence (P26010 20-798): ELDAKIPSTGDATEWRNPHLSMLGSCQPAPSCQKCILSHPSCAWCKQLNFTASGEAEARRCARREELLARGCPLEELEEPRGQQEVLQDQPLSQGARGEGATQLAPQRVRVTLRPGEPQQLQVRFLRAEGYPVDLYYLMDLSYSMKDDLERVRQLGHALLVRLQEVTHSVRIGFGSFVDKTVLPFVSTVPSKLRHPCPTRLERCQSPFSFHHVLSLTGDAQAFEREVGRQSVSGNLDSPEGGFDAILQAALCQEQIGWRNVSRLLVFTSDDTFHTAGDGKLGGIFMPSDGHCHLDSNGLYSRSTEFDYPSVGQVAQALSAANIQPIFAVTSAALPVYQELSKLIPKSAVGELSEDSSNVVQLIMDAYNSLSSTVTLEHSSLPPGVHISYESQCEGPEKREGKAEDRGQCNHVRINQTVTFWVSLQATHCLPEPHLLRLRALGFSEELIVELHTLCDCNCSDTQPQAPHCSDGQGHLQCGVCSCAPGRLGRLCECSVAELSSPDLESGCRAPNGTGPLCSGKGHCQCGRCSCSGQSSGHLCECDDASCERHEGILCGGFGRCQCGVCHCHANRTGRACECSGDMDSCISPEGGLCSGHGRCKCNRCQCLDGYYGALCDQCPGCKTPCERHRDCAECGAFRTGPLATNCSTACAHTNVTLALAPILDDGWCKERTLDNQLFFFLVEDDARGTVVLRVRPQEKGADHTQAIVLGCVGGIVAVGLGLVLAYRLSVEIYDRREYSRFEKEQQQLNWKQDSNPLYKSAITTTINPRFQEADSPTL
As to the kind of experiment: Cell adhesion assay, RPMI8866 cells adhering to MAdCAM coated plates. The test is classed as cell-based. The settings on record: RPMI8866 cells on recombinant human MAdCAM coated plates; read-out: CA Assay (Example 7) IC50. Here is the method:
Three in vitro assays were used to examine the α4β7 mechanistic process used by cells: 1) ligand:receptor affinity, 2) the avidity of those interactions on a cell's surface, and 3) how those interactions fare under an imposing force. In Example 5, a Fluorescence Polarization (FP) assay is used to measure compound activity through binding competition with the fluorescein-labeled peptide. In Example 6, the potency of compounds against α4β7 is measured in the cell-based ligand binding assay (LBA), using RPMI 8866 cells incubated with the compound samples in competition with soluble MAdCAM-1 ligand. In Example 7, activity of compounds is evaluated in a cell adhesion assay that mechanistically tests what occurs in vivo when trafficking cells utilize α4β7 to adhere to MAdCAM-1 expressing HEVs of the gut during the extravasation process. In the cell adhesion assay of Example 7, a MAdCAM1-(Fc) is coated on plastic, and α4β7 expressing cells (RPMI-8866) are allowed to adhere to the coated surface in the presence of the test compounds. Next, the force of washing with buffer is applied to cells thereby testing the strength of that adhesion. Unattached cells are removed and the remaining adherent cells are quantified.
Example 7 describes a cell adhesion assay.
To each well of a 96 well plate, 100 ug of recombinant human MAdCAM in 100 ul PBS is added and incubated overnight at 4° C. After incubation MAdCAM is removed by aspiration and 200 ul of PBS+1% BSA is added to block the plate for 2 hours at 37° C. and 5% CO2. During this incubation dilution curves of compound are made in 100% DMSO in 96 well V bottom plates. 1.75 ul of diluted compounds are then transferred to a new 96 well U bottom plate containing 20 ul of assay media (phosphate free DMEM+25 mM HEPES+1% BSA). To this an additional 155 ul of assay media is added with mixing by pipetting up and down. This mixture is allowed to incubate for 15 minutes at 37° C. and 5% CO2. After incubation 175 ul of assay media containing 2e6/mL RPMI8866 cells is added to compound containing wells without mixing and plate is allowed to incubate for another 15 minutes at 37° C. and 5% CO2. During this incubation MAdCAM coated plates are removed from incubator and washed twice with 200 ul PBS+0.1% BSA. […] This plate is then incubated at 37° C. and 5% CO2 for 1 hour. After incubation plates are washed twice with 200 ul and once with 50 ul of phenol free RPMI+1% BSA. A final 50 ul of phenol free RPMI+1% BSA is added to wells after last wash. Next 50 ul of Promega cell titer glow is added to the wells. Plate is incubated on shaker for 2 minutes at 200 RPM followed by another 8 minutes off shaker before having the luminescence read on a Biotek Citation 5 plate reader. Raw data is converted to % inhibition compared to bottom of curve and analyzed using a 4-parameter non linear curve in Prism to determine IC50 and IC90.
For the compound `Cc1ccn([C@@H](NC(C)C)C(=O)N[C@@H](CC(=O)O)c2cncc(-c3c(C)cccc3C)c2)c(=O)c1` [Example C-7, reference compound], the 50% inhibitory concentration (IC50) (in general, the concentration that inhibits the measured activity by half) was in the range of 10 to 50 nM. Take `Cc1ccc(F)c(C)c1-c1cc(C2CC2)c(F)c([C@H](CC(=O)O)NC(=O)[C@H](CC(C)C)n2cc(CCN3CCC3)c(C(F)(F)F)cc2=O)c1F` [HH-P2, (3S)-3-(2-(5-(2-(azetidin-1-yl)ethyl)-2-oxo-4-(trifluoromethyl)pyridin-1(2H)-yl)-4-methylpentanamido)-3-(5-cyclopropyl-2,3′,4-trifluoro-2′,6′-dimethyl-[1,1′-biphenyl]-3-yl)propanoic Acid]: the IC50 lay within 5 to 10 nM. As for `Cc1cc(C)c(-c2cc(C3CC3)c(F)c([C@H](CC(=O)O)NC(=O)[C@H](CC(C)C)n3cc(CCN4CCC4)c(C(F)(F)F)cc3=O)c2F)c(C)c1` [HM-P2, (3S)-3-(2-(5-(2-(azetidin-1-yl)ethyl)-2-oxo-4-(trifluoromethyl)pyridin-1(2H)-yl)-4-methylpentanamido)-3-(5-cyclopropyl-2,4-difluoro-2′,4′,6′-trimethylbiphenyl-3-yl)propanoic Acid], the IC50 was below 5 nM. Then `Cc1cc(C2CC2)cc(C)c1-c1cc(C(F)(F)F)c(F)c([C@H](CC(=O)O)NC(=O)[C@H](CC(C)C)n2cc(CCCN(C)C)c(C(F)(F)F)cc2=O)c1F` [HU-P2, (3S)-3-(4′-cyclopropyl-2,4-difluoro-2′,6′-dimethyl-5-(trifluoromethyl)-[1,1′-biphenyl]-3-yl)-3-(2-(5-(3-(dimethylamino)propyl)-2-oxo-4-(trifluoromethyl)pyridin-1(2H)-yl)-4-methylpentanamido)propanoic Acid], with 5 to 10 nM; and `Cc1cc(F)cc(C)c1-c1cc(C(F)(F)F)c(F)c([C@H](CC(=O)O)NC(=O)[C@H](CC(C)C)n2cc(CCCN(C)C)c(C(F)(F)F)cc2=O)c1F` [HW-P2, (3S)-3-(2-(5-(3-(dimethylamino)propyl)-2-oxo-4-(trifluoromethyl)pyridin-1(2H)-yl)-4-methylpentanamido)-3-(2,4,4′-trifluoro-2′,6′-dimethyl-5-(trifluoromethyl)-[1,1′-biphenyl]-3-yl)propanoic Acid], with below 5 nM. As to `Cc1cc(C)c(-c2cc(C(F)(F)F)c(F)c([C@H](CC(=O)O)NC(=O)[C@H](CC(C)C)n3cc(CCCN(C)C)c(C(F)(F)F)cc3=O)c2F)c(C)c1` [HZ-P2, (3S)-3-(2,4-difluoro-2′,4′,6′-trimethyl-5-(trifluoromethyl)biphenyl-3-yl)-3-(2-(5-(3-(dimethylamino)propyl)-2-oxo-4-(trifluoromethyl)pyridin-1(2H)-yl)-4-methylpentanamido)propanoic Acid], the IC50 lay in the range of 5 to 10 nM.

Take `Cc1cc(-c2c(C)cc(F)cc2C)cc([C@H](CC(=O)O)NC(=O)[C@H](CC(C)C)n2cc(CCN(C)C)cc(C(F)F)c2=O)c1F` [I-P2, (3S)-3-(4,4′-difluoro-2′,5,6′-trimethyl-[1,1′-biphenyl]-3-yl)-3-(2-(3-(difluoromethyl)-5-(2-(dimethylamino)ethyl)-2-oxopyridin-1(2H)-yl)-4-methylpentanamido)propanoic Acid]: the IC50 was below 5 nM.

In the case of `Cc1cc(C)c(-c2cc(C(F)(F)F)c(F)c([C@H](CC(=O)O)NC(=O)[C@H](CC(C)C)n3cc(CCN(C)C)c(C(F)(F)F)cc3=O)c2F)c(C)c1` [IF-P2, (3S)-3-(2,4-difluoro-2′,4′,6′-trimethyl-5-(trifluoromethyl)-[1,1′-biphenyl]-3-yl)-3-(2-(5-(2-(dimethylamino)ethyl)-2-oxo-4-(trifluoromethyl)pyridin-1(2H)-yl)-4-methylpentanamido)propanoic Acid], the IC50 is below 5 nM.

As for `Cc1cc(C)c(-c2cc(C(F)(F)F)c(F)c([C@H](CC(=O)O)NC(=O)[C@H](CC(C)C)n3cc(CCN4CCC4)c(C(F)(F)F)cc3=O)c2F)c(C)c1` [IG-P2, (3S)-3-(2-(5-(2-(azetidin-1-yl)ethyl)-2-oxo-4-(trifluoromethyl)pyridin-1(2H)-yl)-4-methylpentanamido)-3-(2,4-difluoro-2′,4′,6′-trimethyl-5-(trifluoromethyl)biphenyl-3-yl)propanoic Acid], the IC50 was below 5 nM. Consider `Cc1cc(C)c(-c2cc(C)c(F)c([C@H](CC(=O)O)NC(=O)[C@H](CC(C)C)n3cc(CCCN(C)C)c(C(F)(F)F)cc3=O)c2F)c(C)c1F` [IW-P2, (3S)-3-(2-(5-(3-(dimethylamino)propyl)-2-oxo-4-(trifluoromethyl)pyridin-1(2H)-yl)-4-methylpentanamido)-3-(2,3′,4-trifluoro-2′,4′,5,6′-tetramethyl-[1,1′-biphenyl]-3-yl)propanoic Acid], for which the IC50 was in the range of 5 to 10 nM. Turning to `Cc1cc(F)c(C)c(C)c1-c1cc(C(F)(F)F)c(F)c([C@H](CC(=O)O)NC(=O)[C@H](CC(C)C)n2cc(CCN3CCC3)c(C(F)(F)F)cc2=O)c1F` [KT-P2, (3S)-3-(2-(5-(2-(azetidin-1-yl)ethyl)-2-oxo-4-(trifluoromethyl)pyridin-1(2H)-yl)-4-methylpentanamido)-3-(2,4,4′-trifluoro-2′,3′,6′-trimethyl-5-(trifluoromethyl)-[1,1′-biphenyl]-3-yl)propanoic Acid], the IC50 is below 5 nM.
